Assay results published in ChEMBL document CHEMBL6109146, “Discovery of New Pyrazolone Carbothioamide Derivatives as Potent Antifungal Agents for the Treatment of Candidiasis and Cryptococcosis” (J Med Chem, 2025).
Active and inactive are the calls of the source. The calls are words filed in the database; no cut-off is given here.

Key:
[1] = AUC (0 to t) in male ICR mouse at 2 mg/kg, iv measured after 24 hrs by LC-MS/MS analysis; format: ADME, organism-based; conditions: in vivo
Candida albicans = assay: Antifungal activity against Candida albicans 9296 assessed as inhibition of fungal growth incubated for 48 to 72 hrs by microplate reader analysis; format: functional, organism-based; conditions: time 48-72 hrs
[Candida] auris = Antifungal activity against Candida auris 15448 assessed as inhibition of fungal growth incubated for 48 to 72 hrs by microplate reader analysis; format: functional, organism-based; conditions: Candidozyma auris, time 48-72 hrs
Nakaseomyces glabratus [2] = assay: Antifungal activity against Candida glabrata 0161 assessed as inhibition of fungal growth incubated up to 72 hrs by microplate reader analysis; format: functional, organism-based; conditions: dose 0.13-0.00049 µg/ml
Cryptococcus neoformans [3] = assay: Antifungal activity against Cryptococcus neoformans H99 assessed as inhibition of fungal growth at 0.13 microg/ml incubated for 72 hrs by microplate reader analysis relative to control; format: functional
Cryptococcus neoformans [4] = assay: Antifungal activity against Cryptococcus neoformans H99 assessed as inhibition of fungal cell colony formation at 0.5 microg/ml incubated for 48 hrs by spot-plating assay; format: functional, organism-based; conditions: dose 0.5 µg/ml
Cryptococcus neoformans [5] = assay: Induction of oxidative damage in Cryptococcus neoformans H99 assessed as increase in MDA level at 4 microg/ml incubated for 24 hrs relative to control; format: functional; conditions: dose 4 µg/ml
Nakaseomyces glabratus [6] = assay: Induction of ROS accumulation in Candida glabrata 0161 assessed as increase in intracellular ROS level by measuring intense green fluorescence incubated for 24 hrs by DCFH-DA probe based fluorescence microscopic analysis; format: functional, organism-based
Cryptococcus neoformans [7] = assay: Upregulation of GPX1 gene expression in Cryptococcus neoformans H99 at 4 microg/ml incubated for 8 hrs by qRT-PCR analysis; format: functional; conditions: dose 4.0 µg/ml
[8] = Reduction in intracellular free iron ions level in Cryptococcus neoformans H99 at 4 microg/ml incubated for 24 hrs by absorbance based analysis relative to control; format: functional; design: scale not given: the % may be the effect or the level left; conditions: dose 4 µg/ml
Cryptococcus neoformans [9] = assay: Antifungal activity against Cryptococcus neoformans H99 assessed as inhibition of fungal growth by measuring fold increase in MIC in presence of Fe(II) ion; format: functional
Cryptococcus neoformans [10] = assay: Antifungal activity against Cryptococcus neoformans H99 infected in cryptococcosis female ICR mouse model assessed as reduction in cytoplasmic loosening at 20 mg/kg, ip pre-infected with fungi for 3 hrs followed by compound administration and measured after 5 days by H and E staining based analysis; format: functional, organism-based; conditions: time 5.0 day
Cryptococcus neoformans [11] = assay: Antifungal activity against Cryptococcus neoformans H99 infected in cryptococcosis female ICR mouse model assessed as dense arrangement of neuronal cells at 20 mg/kg, ip pre-infected with fungi for 3 hrs followed by compound administration and measured after 5 days by H and E staining based analysis; format: functional, organism-based; conditions: time 5.0 day
Candida glabrata = assay: Binding affinity to Candida glabrata KIX domain assessed as inhibition constant
[12] = Clearance in male ICR mouse at 2 mg/kg, iv measured after 24 hrs by LC-MS/MS analysis; format: ADME, organism-based; conditions: in vivo

In the case of `Nc1cc(=O)n(C(=S)Nc2ccc(C3CCCCC3)cc2)[nH]1`, the AUC(0-t) at 24 h [1] is reported as 2040 ng·h/mL, the Activity (Candida albicans) is reported as “Active” and the Activity ([Candida] auris) is reported as “Active”. The Activity (Nakaseomyces glabratus [2]) was “Dose-dependent-effect”, the inhibition at 0.13 µg/mL (Cryptococcus neoformans [3]) was 100% and the Activity (Cryptococcus neoformans [4]) was “Active”. For the same compound, the Activity (Cryptococcus neoformans [5]) was roughly 20%, the Activity (Nakaseomyces glabratus [6]) was “Active” and the Activity (Cryptococcus neoformans [7]) was “Active”. For the same compound, the Activity [8] was roughly 80%, the “fold change (FC)” value (Cryptococcus neoformans [9]) was roughly 1000 and the Activity (Cryptococcus neoformans [10]) was “Active”. For the same compound, the Activity (Cryptococcus neoformans [11]) was “Active”, the K (Candida glabrata) was 174 µM and the clearance [12] was 16.2 mL/min/kg.
